For data set [1], the system named is Mycobacterium tuberculosis. Briefly: microbe, parasite or virus in culture. The settings on record: H37Rv ATCC 25618, 144 h.
Description: Antimycobacterial activity against Mycobacterium tuberculosis H37Rv ATCC 25618 after 6 days by resazurin dye based assay
A further data set has as its system HepG2. Briefly: Cytotoxicity against human HepG2 cells assessed as reduction in cell viability after 48 hrs by CellTiter Glo assay. The conditions noted are these: HepG2, 48 h. Format: cell-based. In general terms: ATP-based viability assays read luminescence as a measure of living cells.
The nature of data set [2]: Kinetic aqueous solubility of the compound by chemiluminescent nitrogen detection assay. Format: physicochemical. The settings on record: read-out: Kinetic_solubility.
Data set [3] can be described thus: Lipophilicity, log D of the compound at pH 7.4 by chromatographic method. Format: physicochemical. The conditions noted are these: buffer.
Data set [4] is described as follows: Permeability of the compound by PAMPA. The format is physicochemical. The settings on record: read-out: permeability. A general note: The PAMPA barrier holds no transporters, so it reflects passive diffusion.

≈ marks a conversion by molar mass, not a printed value.

Broadly, the IC50 is the midpoint of a concentration-inhibition curve. Usually chromatographic logD stands for a lipophilicity value derived from retention on a column.

In data set [1], `COc1ccc2nc(C)cc(OCC(=O)Nc3cc(C)cc(C)c3)c2c1` gave an MIC of 1.9 µM (≈ 0.666 µg/mL). Moreover, in the data set with HepG2, the IC50 was 20 µM.

The compound `COc1ccc2nccc(OCC(=O)Nc3cc(C)cc(C)c3)c2c1` displayed an MIC in data set [1] of 10 µM (≈ 3.36 µg/mL). Further, the solubility kinetic in data set [2] was 51 µM (≈ 17.2 µg/mL). In addition, in data set [3], the chromatographic logD came to 5.3. The Papp in data set [4] turned out to be 280 nm/s. The IC50 in the data set on HepG2 was 50.1 µM.

Regarding `Cc1cc(C)cc(NC(=O)Cn2ccc(=O)c3ccccc32)c1`, the MIC in data set [1] is above 250 µM. In data set [2], the solubility kinetic stood at 34 µM (≈ 10.4 µg/mL). Further, the chromatographic logD in data set [3] came to 3.54. Moreover, the Papp in data set [4] came to 450 nm/s. In addition, the IC50 in the data set on HepG2 was 63.1 µM.

For the compound `COc1ccc2nc(C)n(CC(=O)Nc3cc(C)cc(C)c3)c(=O)c2c1`, the MIC in data set [1] came to 250 µM (≈ 87.9 µg/mL). Also, the solubility kinetic in data set [2] was 74 µM (≈ 26 µg/mL). In data set [3], the chromatographic logD was found to be 4.77. Besides, the Papp in data set [4] was 580 nm/s. In addition, the IC50 in the data set on HepG2 is above 100 µM.

In data set [1], `COc1ccc2nc(C)cc(OCC(=O)Nc3cc(C)cc(C)c3)c2n1` had an MIC of 3.8 µM (≈ 1.34 µg/mL). Besides, in data set [2], the solubility kinetic was found to be 19 µM (≈ 6.68 µg/mL). The compound also gave a chromatographic logD in data set [3] of 5.57. In addition, the Papp in data set [4] was found to be 510 nm/s. Moreover, in the data set on HepG2, the IC50 is above 100 µM.

Compound `Cc1cc(C)cc(NC(=O)COc2ccnc3ccccc23)c1` displayed an MIC in data set [1] above 80 µM. For the same compound, the solubility kinetic in data set [2] is 59 µM (≈ 18.1 µg/mL). Further, the chromatographic logD in data set [3] was 5.03. Moreover, the Papp in data set [4] was determined as 460 nm/s. Also, the IC50 in the data set on HepG2 was above 100 µM.

Consider `Cc1cc(C)cc(NC(=O)Cn2ccc(=O)c3ccc(Cl)cc32)c1`, for which the MIC in data set [1] is above 250 µM. Besides, the solubility kinetic in data set [2] was 86 µM (≈ 29.3 µg/mL). This compound returned a chromatographic logD in data set [3] of 4.39. The Papp in data set [4] was 260 nm/s. For the same compound, the IC50 in the data set with HepG2 is 100 µM.

In data set [1], `COc1ccc2c(c1)c(=O)ccn2CC(=O)Nc1cc(C)cc(C)c1` had an MIC above 250 µM. Also, the solubility kinetic in data set [2] stood at 30 µM (≈ 10.1 µg/mL). Moreover, the chromatographic logD in data set [3] came out at 3.72. Moreover, the Papp in data set [4] was 190 nm/s. For the same compound, the IC50 in the data set on HepG2 is above 100 µM.

As for `COc1ccc2ncn(CC(=O)Nc3cc(C)cc(C)c3)c(=O)c2c1`, the MIC in data set [1] was above 250 µM. Besides, in data set [2], the solubility kinetic was 8 µM (≈ 2.7 µg/mL). For the same compound, the chromatographic logD in data set [3] was 4.5. The IC50 in the data set with HepG2 is above 100 µM.

In the case of `COc1ccc2nc(C)nc(OCC(=O)Nc3cc(C)cc(C)c3)c2c1`, the MIC in data set [1] stood at 1.25 µM (≈ 0.439 µg/mL). Further, the solubility kinetic in data set [2] came to 3 µM (≈ 1.05 µg/mL). In data set [3], this compound displayed a chromatographic logD of 5.59. In addition, the Papp in data set [4] came out at 370 nm/s. Also, the 50% inhibitory concentration (IC50) in the data set on HepG2 is above 100 µM.

On to `Cc1cc(C)cc(NC(=O)Cn2cnc3ccccc3c2=O)c1`, for which the MIC in data set [1] is above 250 µM. For the same compound, in data set [2], the solubility kinetic came to 20 µM (≈ 6.15 µg/mL). In data set [3], this compound had a chromatographic logD of 4.29. The Papp in data set [4] amounted to 600 nm/s. For the same compound, in the data set on HepG2, the IC50 is 79.4 µM.

Compound `NNC(=O)c1ccncc1` [ISONIAZID] registered an MIC in data set [1] of 3.6 µM (≈ 0.494 µg/mL).

(Values after ChEMBL document CHEMBL4041504, “Differential characterization using readily accessible NMR experiments of novel N- and O-alkylated quinolin-4-ol, 1,5-naphthyridin-4-ol and quinazolin-4-ol derivatives with antimycobacterial activity” (Eur J Med Chem, 2017).)
